Literature values as cited in patent US20110136913A1, “ASSESSING AND TREATING BREAST CANCER PATIENTS” (priority 2008, published 2011).

Test system: MCF-7 cell lines that stably over express exogenous HER-2
Conditions: MCF-7 cells over expressing HER-2, mouse model

## CC/C(=C(\c1ccccc1)c1ccc(OCCN(C)C)cc1)c1ccccc1 [tamoxifen]
  Effect on tumor growth: potent agonist on tumor growth
